We go through seven molecules from PubChem BioAssay (NCI).

Broadly, the GI50 is the concentration giving 50% growth inhibition. The term TGI denotes the concentration giving total growth inhibition. A higher TGI goes with less potent growth arrest.

The structures appear in SMILES notation. Where “and” joins values, the source holds several entries; their conditions need not be identical. Equal values may be shown once.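 Grown in 96-well plates, cells were treated for 48 hours with each compound at five concentrations. Insufficient inhibition: endpoint recorded as highest concentration tested. GI50 is the concentration that inhibits growth by half. TGI marks complete inhibition of growth.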

Holding throughout (test): DTP human tumour cell line panel, 48 h
For assay [1], the system named is U251 CNS.
The subject of assay [2] is MCF7 breast.
Assay [3] concerns HCC-2998 colon.
In assay [4] the test system is A549 NSCLC.
Assay [5] relates to HT29 colon.
Assay [6] concerns SNB-19 CNS.
Assay [7] concerns A498 renal.
Assay [8] concerns CAKI-1 renal.
The test system of assay [9] is OVCAR-3 ovarian.
For assay [10], the system named is NCI/ADR-RES ovarian.

Take `COc1cc2c(cc1OCCN1C(=O)c3cccc4cccc(c34)C1=O)N=C[C@@H]1CCCN1C2=O`: the GI50 in assay [1] is 14200 nM; in [2], 13600 nM; in [3], 14500 nM; in assay [4], 17.7 µM; in [5] it was 14400 nM; in assay [6], 37700 nM. In addition, the GI50 is 19.6 µM in assay [7], 18.8 µM in assay [8], 14900 nM in [9] and 22.5 µM in [10]. Besides, the TGI is 12600 nM and > 100000 nM in [1]; 18.2 µM and > 100 µM in assay [2]; 15.6 µM and 27.6 µM in [3]; 17.1 µM and 53.1 µM in assay [4]; 16.9 µM and 29.8 µM in [5]; 30.2 µM and > 100 µM in [6]. The total growth inhibition concentration (TGI) was 16.6 µM and 42.8 µM in assay [7]; 19.8 µM and 36.2 µM in assay [8]; 13.1 µM and 28.2 µM in [9]; 45.8 µM and 56.3 µM in assay [10].

Regarding `Cc1ccc2nc(NC(=O)CSC(=S)N3CCN(Cc4ccccc4)CC3)sc2c1`, the GI50 in assay [1] was more than 100000 nM; in [2], 64500 nM; in assay [3], more than 100000 nM; in assay [4], more than 100 µM; in assay [5], 75200 nM; in assay [6] it was more than 100000 nM. For the same molecule, the GI50 in [7] was more than 100 µM; in assay [8] it was more than 85.8 µM; in assay [9], more than 100000 nM; in [10], more than 100 µM. Further, the TGI in assay [1] was more than 100000 nM; in assay [2] it was more than 100 µM; in assay [3], more than 100 µM; in assay [4] it was more than 100 µM; in assay [5] it was more than 100 µM; in assay [6], more than 100 µM. Besides, the TGI in assay [7], in assay [8], in assay [9] and in assay [10] was more than 100 µM throughout.

For `Cc1cc(C)c(S(=O)(=O)Oc2ccccc2[N+](=O)[O-])c(C)c1`, the GI50 in assay [1] is 2360 nM; in assay [2] it was 2810 nM; in assay [3], 2950 nM; in [4], 4.19 µM; in [5], 921 nM; in [6], 4000 nM. Besides, the GI50 is 1.21 µM in assay [7], 0.956 µM in assay [8], 1000 nM in assay [9] and 1.01 µM in assay [10]. The concentration for total growth inhibition (TGI) in assay [1] is more than 100000 nM; in assay [2] it was more than 100 µM; in [3], more than 100 µM; in [4] it was more than 100 µM; in assay [5] it was more than 100 µM; in assay [6] it was more than 100 µM. The TGI in [7] was 12.5 µM; in [8], more than 19.9 µM; in assay [9], 3.63 µM; in assay [10], more than 27.4 µM.

`O=C1c2ccccc2C(=O)c2c1c(NCCNCCO)c1cc[nH]c1c2NCCNCCO`: the GI50 is 739 nM in assay [1]; 1350 nM in assay [2]; 3180 nM in [3]; 5.46 µM in assay [4]; 2780 nM in [5]; 1260 nM in assay [6]. Also, the GI50 in [7] was 8.09 µM; in assay [8], more than 47.1 µM; in assay [9], 3570 nM; in [10], more than 100 µM. The concentration for total growth inhibition (TGI) is 19700 nM in [1]; 17.2 µM in [3]; 27.2 µM in [4]; more than 41.4 µM in assay [5]; 12.9 µM in [6]; 32.9 µM in assay [7]. In addition, the figures for the total growth inhibition concentration (TGI) in assay [8], in assay [9] and in assay [10] were more than 100 µM, more than 26.1 µM and more than 100 µM, respectively.

Consider `CN([N-]C(=O)CC(=O)[N-]N(C)C(=S)c1ccccc1)C(=S)c1ccccc1.[Cu+2]`, for which the 50% growth inhibitory concentration (GI50) in assay [1] was 33.1 nM; in assay [2], less than 10 nM; in [3] it was 59.8 nM; in [4] it was 0.0223 µM; in [6], 129 nM; in assay [7] it was 0.0346 µM. The concentration for 50% growth inhibition (GI50) in assay [8] is 0.0459 µM; in assay [9], less than 10 nM; in [10], less than 0.0261 µM. For the same molecule, the concentration for total growth inhibition (TGI) in assay [1] came out at 125 nM; in assay [2] it was 0.0284 µM; in assay [3] it was 0.176 µM; in [4] it was 0.119 µM; in assay [5], 0.0275 µM; in assay [6], 0.261 µM. In addition, the TGI was 0.146 µM in assay [7], 0.159 µM in assay [8], 0.03 µM in assay [9] and 0.456 µM in assay [10].

Consider `CCCCCCCCCCCCCCCC[N+](C)(C)C`, for which the GI50 is 139 nM and 567 nM in assay [1]; 313 nM and 1860 nM in [2]; 1710 nM in assay [3]; 65.8 nM and 516 nM in [5]; 129 nM in [6]; 1.96 µM in assay [7]. Further, the GI50 in [8] is 2.05 µM; in assay [9], 182 nM and 1160 nM; in assay [10] it was 1.6 µM and 11.9 µM. The concentration for total growth inhibition (TGI) was 271 nM and 1970 nM in [1]; 1.44 µM and 5.2 µM in assay [2]; 3.73 µM in assay [3]; 0.417 µM and 3.78 µM in [4]; 1.03 µM and 1.97 µM in assay [5]; 0.255 µM in assay [6]. For the same molecule, the TGI in [7] is 5.25 µM; in assay [8] it was 10.7 µM; in [9], 0.519 µM and 2.81 µM; in assay [10], 6.53 µM and 31.6 µM.

For the molecule `COc1ccc(CNCCCN2C(=O)c3ccc4c5c(ccc(c35)C2=O)C(=O)N(CCCNCCCCNCCCN)C4=O)c(OC)c1OC`, the GI50 is 630 nM in assay [1]; 355 nM in assay [2]; 1670 nM in assay [3]; 1.69 µM in assay [4]; 452 nM in assay [5]; 1420 nM in assay [6]. For the same molecule, the GI50 in assay [7] is 5.5 µM; in assay [8], 4.49 µM; in assay [9] it was 1170 nM; in assay [10] it was 6.01 µM. The total growth inhibition concentration (TGI) is 2970 nM in assay [1]; 1.62 µM in assay [2]; 4.79 µM in assay [3]; 16.1 µM in assay [4]; 3.23 µM in [5]; 11.4 µM in [6]. Moreover, the TGI is 23.1 µM in assay [7], 44.9 µM in assay [8], 2.48 µM in [9] and 49.7 µM in assay [10].
